106 compounds from PubChem BioAssay AID1552 (Sanford-Burnham Center for Chemical Genomics, 2009) can be followed below.

Usually Kd stands for the equilibrium constant for the complex coming apart.

Calls of active or inactive are those of the source. The rule behind the calls is not given here.

The target in this test is Ubiquitin-conjugating enzyme E2 N (Homo sapiens) (UniProt P61088). Briefly: NMR detection of UBE2N ligand binding – biophysical, purified protein (AID 1552). To be noted: NMR binding to purified UBE2N.
Ubiquitin-conjugating enzyme E2 N (Homo sapiens), sequence (P61088 whole entry, looked up): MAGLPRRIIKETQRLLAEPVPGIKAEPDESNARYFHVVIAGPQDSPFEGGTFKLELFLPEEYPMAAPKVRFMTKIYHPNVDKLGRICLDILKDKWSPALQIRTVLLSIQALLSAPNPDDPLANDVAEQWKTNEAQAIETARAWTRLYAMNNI
As for `COc1ccc(S(=O)(=O)Nc2ccccn2)c(C)c1C`, the Kd is > 4 mM (inactive).

With `CC1=CCc2c(cc3oc(C)cc(=O)c3c2O)OC1`, the Kd is > 4 mM (inactive). Turning to `CC(=O)Nc1ccc(Oc2nc(C)cc(C)n2)cc1`, the Kd is > 4 mM (inactive). As for `Cc1scc(C(=O)Nn2cnnc2)c1-c1ccccc1`, the Kd was > 4 mM (inactive). Under `O=c1[nH]nc(Cc2ccccn2)c2ccccc12` stands > 4 mM (inactive); under `Nc1ccc2c(c1)C(=O)OC2`, > 4 mM (inactive); under `O=C(O)CCc1ccc2c(c1)OCO2`, > 4 mM (inactive). Under `NC(=O)CCn1cnc2ccccc21` stands > 4 mM (inactive). Under `CCN(CC)c1nc2n(c(=O)n1)CCO2` stands > 4 mM (inactive). For the compound `Cc1nn2c(=O)/c(=C/c3cccc(F)c3)sc2nc1=O`, the Kd is > 4 mM (inactive). On to `c1ccc(CSc2ncccn2)cc1`, for which the Kd was > 4 mM (inactive).

Regarding `Cn1c(=O)c2[nH]cnc2n(C)c1=O`, the Kd is > 4 mM (inactive). Turning to `NC(=O)CSc1nnc(-c2cccnc2)o1`, the Kd is > 4 mM (inactive). The same measure for `COc1ccc(N/C(N)=N\c2nc(C)cc(C)n2)cc1`: > 4 mM (inactive).

Regarding `CC(=O)c1ccc(N2C(=O)C(C(C)C)NC2=S)cc1` (stereo unspecified), the Kd was > 4 mM (inactive). For `O=C(/C=C/c1ccccc1)NC1CCS(=O)(=O)C1` (stereo unspecified), the Kd was > 4 mM (inactive).

As for `NC(=O)c1ccc(NC(=O)C2CC2)cc1`, the Kd is > 4 mM (inactive). In the case of `NC(=O)c1ccccc1NC(=O)C1CC1`, the Kd was > 4 mM (inactive). Take `Cc1cc(=O)n2ccc(CN3CCOCC3)c(O)c2n1`: the Kd was > 4 mM (inactive). Consider `Fc1ccc(NC2=NCCS2)cc1Cl`, for which the Kd was > 4 mM (inactive). With `CCCNC(CC(=O)Nc1cccnc1)C(=O)O` (stereo unspecified), the Kd was > 4 mM (inactive).

As to `NCCC(=O)N[C@@H](Cc1cnc[nH]1)C(=O)O`, the Kd is > 4 mM (inactive). Under `O=C(O)C1NCCc2ccccc21` (stereo unspecified) stands > 4 mM (inactive); under `CN1C(=O)/C(=C/c2ccc(O)cc2O)SC1=S`, > 4 mM (inactive); under `Cc1cc2nc(SCC(=O)O)nc(C)c2cc1C`, > 4 mM (inactive).

With `Cc1nnc(SCC(=O)Nc2ccccc2)[nH]c1=O`, the Kd was > 4 mM (inactive). As for `O=C(O)c1cccc2c1OCC2`, the Kd is > 4 mM (inactive). The same measure for `CN(C(=O)NC1CCS(=O)(=O)C1)C1CCCCC1` (stereo unspecified): > 4 mM (inactive); for `Nc1c(C(=O)O)sc2ncccc12`: > 4 mM (inactive).

As for `O=C(c1ccccc1)N1CCNCC1`, the Kd is > 4 mM (inactive). Under `CN(C)C(=O)CCNS(=O)(=O)c1ccccc1` stands > 4 mM (inactive); under `CN1CCCCC1c1ccc(-c2cccnc2)nc1` (stereo unspecified), > 4 mM (inactive). Turning to `O=c1[nH]c(NCCO)nnc1Cc1ccccc1`, the Kd was > 4 mM (inactive). As to `CC(=O)NC(=S)Nc1ccc(C(C)=O)cc1`, the Kd was > 4 mM (inactive). Turning to `Cc1ccc(NC(=O)C2CCCNC2=O)nc1` (stereo unspecified), the Kd was > 4 mM (inactive). `CCCc1ncc(C(O)c2cccc3ccccc23)n1C` (stereo unspecified): the Kd was > 4 mM (inactive). `CC(=O)Oc1ccc(/C=C/c2cc(OC(C)=O)cc(OC(C)=O)c2)cc1`: the Kd is > 4 mM (inactive). The same measure for `Cn1c(=O)c2[nH]cnc2n(-c2ccccc2)c1=O`: > 4 mM (inactive); for `CC(=O)c1cc2c(cc1O)OC(C)(C)C=C2`: > 4 mM (inactive); for `COC(=O)c1scc(S(C)(=O)=O)c1-n1cccc1`: > 4 mM (inactive).

For the compound `Cc1cc(NC(=O)c2ccc3c(c2)OCCO3)no1`, the Kd is > 4 mM (inactive). As to `Cc1ccc(C)c(S(=O)(=O)NCc2cccnc2)c1`, the Kd was > 4 mM (inactive). Regarding `COc1ccc(/C=C2\NC(=S)N(C)C2=O)cc1O`, the Kd was > 4 mM (inactive).

Take `O=C(O)CCCNC(=O)c1ccccc1C(=O)O`: the Kd is > 4 mM (inactive). Turning to `C=CCN1CC[C@]23c4c5ccc(O)c4OC2C(=O)CC[C@@]3(O)[C@H]1C5` (stereo partly specified), the Kd was > 4 mM (inactive).

For the compound `CCOC(=O)c1c(C)cc(O)cc1O`, the Kd was > 4 mM (inactive). Under `O=C1c2ccncc2C(=O)N1CNc1ccccn1` stands > 4 mM (inactive); under `COc1cc2c(cc1OC)[C@@H]1C(=O)c3ccc4oc(C(C)C)cc4c3O[C@@H]1CO2`, > 4 mM (inactive). `COC(=O)c1oc2ccc(Cl)cc2c1NC(C)=O`: the Kd is > 4 mM (inactive). For `COCc1cc(Cl)nc(-c2csc(C)n2)n1`, the Kd was > 4 mM (inactive). The same measure for `CC12CN(CC#N)CC(C)(CN(CC#N)C1)C2=O`: > 4 mM (inactive); for `Nc1ccc(S(=O)(=O)Nc2ccc(F)cc2F)cc1`: > 4 mM (inactive); for `COc1ccc2nc(N)sc2n1`: > 4 mM (inactive). As to `O=c1c(-c2ccco2)[n+]([O-])c2ccccc2n1O`, the Kd was > 4 mM (inactive). Under `O=C(Cc1ccc(F)cc1)Nc1ncccn1` stands > 4 mM (inactive); under `CCc1ccccc1NC(=O)c1ccoc1C`, > 4 mM (inactive).

In the case of `COc1c2c(cc3c1OCO3)CCN(C)C2`, the Kd is > 4 mM (inactive). Under `O=C1C2C3C=CC(C3)C2C(=O)N1CCO` (stereo unspecified) stands > 4 mM (inactive); under `COc1ncccc1N`, > 4 mM (inactive). As for `O=c1c(-c2ccccc2)coc2cc(O)cc(O)c12`, the Kd was > 4 mM (inactive). The same measure for `COC(=O)c1c[nH]c2ccccc12`: > 4 mM (inactive). Consider `COc1cc2nc(-c3cccs3)oc(=O)c2cc1OC`, for which the Kd is > 4 mM (inactive). Under `O=[N+]([O-])c1cccc(CN2CCC(O)CC2)c1` stands > 4 mM (inactive). As to `CCC(C)C(NC)C(=O)O` (stereo unspecified), the Kd is > 4 mM (inactive). Turning to `C=C1C2CC[C@@]3(C)[C@H](c4ccoc4)OC(=O)C[C@]13O[C@H]1CC(O)C(C)(C)C(CC(=O)OC)[C@@]21C` (stereo partly specified), the Kd is > 4 mM (inactive). The same measure for `Nc1ccc(Oc2ccccc2)nc1`: > 4 mM (inactive); for `Cn1c(O)c(C=NCC2CCNCC2)c(=O)n(C)c1=O`: > 4 mM (inactive). With `OCC(O)Cc1ccc2c(c1)OCO2` (stereo unspecified), the Kd is > 4 mM (inactive). In the case of `Cc1c(N=CN(C)C)c(=O)n(-c2ccccc2)n1C`, the Kd was > 4 mM (inactive). Turning to `CC(C)CCCC(C)[C@H]1CCC2C3CC[C@H]4CC(=O)CC[C@]4(C)C3CC[C@@]21C` (stereo partly specified), the Kd is > 4 mM (inactive). The same measure for `c1ccc(CNc2ncnc3nc[nH]c23)nc1`: > 4 mM (inactive); for `O=S(=O)(N1CCOCC1)n1nnc2ccccc21`: > 4 mM (inactive); for `O=CN1CCN(C(=O)c2ccc(F)cc2)CC1`: > 4 mM (inactive). Under `O=[N+]([O-])c1cccc2c1nnn2C(CO)OCCO` (stereo unspecified) stands > 4 mM (inactive); under `CC(=O)OCC[C@H](C)CCC=C(C)C`, > 4 mM (inactive); under `CN1C(=O)c2ccc(C(=O)NC3CCCCC3)cc2C1=O`, > 4 mM (inactive). Under `OC/C=C/c1ccc(O)c(O)c1` stands > 4 mM (inactive); under `O=C(c1cccc(-n2cnnn2)c1)N1CCOCC1`, > 4 mM (inactive); under `COc1cc(C)c(S(=O)(=O)N2CCN(C)CC2)cc1C`, > 4 mM (inactive).

As for `O=C1CCCN1C(=O)c1ccc(F)cc1`, the Kd was > 4 mM (inactive).

On to `Nc1ncc2[nH]cnc2n1`, for which the Kd was > 4 mM (inactive). The same measure for `COc1cc2cc3c4cc(OC)c(OC)cc4cc[n+]3c(C)c2cc1OC`: > 4 mM (inactive); for `CCc1cc(=O)[nH]c(SCC(=O)NCCOC)n1`: > 4 mM (inactive); for `O=C1Cc2ccccc2N1c1ccccc1`: > 4 mM (inactive). The same measure for `COC(=O)Nc1nc2c(s1)CCCC2`: > 4 mM (inactive). Consider `NCc1cccc(-n2cccc2)c1`, for which the Kd was > 4 mM (inactive). Under `Cc1nn2c(nc1=O)SCC2(O)c1ccccc1` (stereo unspecified) stands > 4 mM (inactive); under `CC(C)CCn1cnc2c1c(=O)n(C)c(=O)n2C`, > 4 mM (inactive).

Turning to `Cc1n[nH]c(C)c1CC(=O)O`, the Kd was > 4 mM (inactive). As to `CSc1ccc2nnc(-c3cccnc3)n2n1`, the Kd was > 4 mM (inactive).

In the case of `N#CC(O[C@@H]1O[C@H](CO[C@@H]2O[C@H](CO)[C@@H](O)[C@H](O)[C@H]2O)[C@@H](O)[C@H](O)[C@H]1O)c1ccccc1` (stereo partly specified), the Kd was > 4 mM (inactive). The same measure for `CCOC(=O)c1c(C)cc(O)c(C)c1O`: > 4 mM (inactive); for `Cc1ccc2c(c1)CCCN2C(=O)c1c(C)noc1C`: > 4 mM (inactive).

Turning to `CN(C)c1nc(N)nc(Cn2ccnc2)n1`, the Kd is > 4 mM (inactive). Turning to `COC(=O)c1ccccc1N(C)S(C)(=O)=O`, the Kd was > 4 mM (inactive). Under `NC(=O)c1ccsc1N` stands > 4 mM (inactive); under `COC(=O)c1noc(-c2ccc(OC)cc2)n1`, > 4 mM (inactive).

On to `CSc1ccccc1NC(=O)c1cnccn1`, for which the Kd is > 4 mM (inactive). The same measure for `O=C1COc2ccccc2C(=O)N1`: > 4 mM (inactive). Under `COc1ccc(-c2cc(=O)c3c(O)cc(O[C@H]4O[C@H](CO[C@@H]5O[C@@H](C)[C@H](O)[C@@H](O)[C@H]5O)[C@@H](O)[C@H](O)[C@H]4O)cc3o2)cc1` stands > 4 mM (inactive); under `CC(=O)Nc1ccc2c(c1)CCC2=O`, > 4 mM (inactive); under `Nc1ccccc1C(=O)CC(N)C(=O)O` (stereo unspecified), > 4 mM (inactive).

For `NCc1ccc(-n2cccn2)cc1`, the Kd is > 4 mM (inactive). For `CSc1ccccc1NC(=O)c1ccco1`, the Kd was > 4 mM (inactive). Turning to `Nc1ccc2ncsc2c1`, the Kd was > 4 mM (inactive). Under `Cc1cc(C(=O)Nc2ccccn2)no1` stands > 4 mM (inactive).
